Assay results taken from ChEMBL document CHEMBL4507265 (2021).

Legend:
[1] = target: Ribosomal protein S6 kinase alpha-1 (Homo sapiens) (UniProt Q15418); conditions: Compound concentration 1000.0 nM
[2] = target: cAMP-dependent protein kinase catalytic subunit beta (Homo sapiens) (UniProt P22694); conditions: Compound concentration 1000.0 nM
[3] = tested on: Epidermal growth factor receptor (Homo sapiens), P00533 [UNDEFINED MUTATION]; conditions: Compound concentration 1000.0 nM
[4] = target: Proto-oncogene tyrosine-protein kinase Src (Homo sapiens) (UniProt P12931); conditions: Compound concentration 1000.0 nM
[5] = target: Activin receptor type-2A (Homo sapiens) (UniProt P27037); conditions: Compound concentration 1000.0 nM
[6] = tested on: Proto-oncogene tyrosine-protein kinase receptor Ret (Homo sapiens), P07949 [V804L]; conditions: Compound concentration 1000.0 nM
[7] = target: Death-associated protein kinase 3 (Homo sapiens) (UniProt O43293); conditions: Compound concentration 1000.0 nM
[8] = target: Tyrosine-protein kinase Fes/Fps (Homo sapiens) (UniProt P07332); conditions: Compound concentration 1000.0 nM
[9] = target: Myotonin-protein kinase (Homo sapiens) (UniProt Q09013); conditions: Compound concentration 1000.0 nM
[10] = target: Atypical kinase COQ8A, mitochondrial (Homo sapiens) (UniProt Q8NI60); conditions: Compound concentration 1000.0 nM
[11] = target: Calcium/calmodulin-dependent protein kinase kinase 2 (Homo sapiens) (UniProt Q96RR4); conditions: Compound concentration 1000.0 nM
[12] = target: Calcium/calmodulin-dependent protein kinase type 1G (Homo sapiens) (UniProt Q96NX5); conditions: Compound concentration 1000.0 nM
[13] = target: BDNF/NT-3 growth factors receptor (Homo sapiens) (UniProt Q16620); conditions: Compound concentration 1000.0 nM
[14] = target: Tyrosine-protein kinase ITK/TSK (Homo sapiens) (UniProt Q08881); conditions: Compound concentration 1000.0 nM
[15] = target: Tyrosine-protein kinase Srms (Homo sapiens) (UniProt Q9H3Y6); conditions: Compound concentration 1000.0 nM
[16] = target: Mitogen-activated protein kinase 11 (Homo sapiens) (UniProt Q15759); conditions: Compound concentration 1000.0 nM
[17] = target: Mitogen-activated protein kinase 7 (Homo sapiens) (UniProt Q13164); conditions: Compound concentration 1000.0 nM
[18] = target: Phosphatidylinositol 4,5-bisphosphate 3-kinase catalytic subunit beta isoform (Homo sapiens) (UniProt P42338); conditions: Compound concentration 1000.0 nM
[19] = target: Tyrosine-protein kinase ABL2 (Homo sapiens) (UniProt P42684); conditions: Compound concentration 1000.0 nM
[20] = target: Interleukin-1 receptor-associated kinase 3 (Homo sapiens) (UniProt Q9Y616); conditions: Compound concentration 1000.0 nM
[21] = target: Mitogen-activated protein kinase kinase kinase 14 (Homo sapiens) (UniProt Q99558); conditions: Compound concentration 1000.0 nM
[22] = target: Megakaryocyte-associated tyrosine-protein kinase (Homo sapiens) (UniProt P42679); conditions: Compound concentration 1000.0 nM
[23] = target: Ribosomal protein S6 kinase alpha-2 (Homo sapiens) (UniProt Q15349); conditions: Compound concentration 1000.0 nM
[24] = tested on: Mast/stem cell growth factor receptor Kit (Homo sapiens), P10721 [V559D,V654A]; conditions: Compound concentration 1000.0 nM
[25] = target: Mitogen-activated protein kinase kinase kinase 4 (Homo sapiens) (UniProt Q9Y6R4); conditions: Compound concentration 1000.0 nM
[26] = target: Serine/threonine-protein kinase pim-3 (Homo sapiens) (UniProt Q86V86); conditions: Compound concentration 1000.0 nM
[27] = target: RAC-alpha serine/threonine-protein kinase (Homo sapiens) (UniProt P31749); conditions: Compound concentration 1000.0 nM
[28] = target: Mitogen-activated protein kinase 4 (Homo sapiens) (UniProt P31152); conditions: Compound concentration 1000.0 nM
[29] = target: Serine/threonine-protein kinase DCLK2 (Homo sapiens) (UniProt Q8N568); conditions: Compound concentration 1000.0 nM
[30] = target: Mitogen-activated protein kinase kinase kinase kinase 5 (Homo sapiens) (UniProt Q9Y4K4); conditions: Compound concentration 1000.0 nM
[31] = target: Serine/threonine-protein kinase SIK3 (Homo sapiens) (UniProt Q9Y2K2); conditions: Compound concentration 1000.0 nM
[32] = target: Dual specificity mitogen-activated protein kinase kinase 2 (Homo sapiens) (UniProt P36507); conditions: Compound concentration 1000.0 nM
[33] = target: 5-hydroxytryptamine receptor 3A (Homo sapiens) (UniProt P46098); conditions: Compound concentration 10.0 uM
[34] = target: Myosin light chain kinase, smooth muscle (Homo sapiens) (UniProt Q15746); conditions: Compound concentration 1000.0 nM
[35] = target: Serine/threonine-protein kinase Nek9 (Homo sapiens) (UniProt Q8TD19); conditions: Compound concentration 1000.0 nM
[36] = target: Ephrin type-A receptor 3 (Homo sapiens) (UniProt P29320); conditions: Compound concentration 1000.0 nM
[37] = target: T1, 5-hydroxytryptamine receptor 1A (Homo sapiens) (UniProt P08908); conditions: Compound concentration 10.0 uM
T1 sequence (whole entry): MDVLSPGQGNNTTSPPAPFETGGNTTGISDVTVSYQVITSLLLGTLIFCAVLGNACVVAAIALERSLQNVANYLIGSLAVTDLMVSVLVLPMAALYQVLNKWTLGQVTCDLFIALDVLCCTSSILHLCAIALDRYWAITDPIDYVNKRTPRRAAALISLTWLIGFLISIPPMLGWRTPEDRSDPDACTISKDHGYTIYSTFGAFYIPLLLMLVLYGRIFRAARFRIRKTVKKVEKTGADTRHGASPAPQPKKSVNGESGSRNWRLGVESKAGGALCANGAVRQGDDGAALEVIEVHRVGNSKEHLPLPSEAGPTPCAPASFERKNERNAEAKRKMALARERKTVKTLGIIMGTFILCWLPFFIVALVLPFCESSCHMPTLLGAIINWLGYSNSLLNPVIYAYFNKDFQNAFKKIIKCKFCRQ

[38] = target: Tyrosine-protein kinase HCK (Homo sapiens) (UniProt P08631); conditions: Compound concentration 1000.0 nM
[39] = target: Dual specificity protein kinase TTK (Homo sapiens) (UniProt P33981); conditions: Compound concentration 1000.0 nM

Chain of Atypical kinase COQ8A, mitochondrial (Homo sapiens) (Q8NI60 163-647 limits assumed): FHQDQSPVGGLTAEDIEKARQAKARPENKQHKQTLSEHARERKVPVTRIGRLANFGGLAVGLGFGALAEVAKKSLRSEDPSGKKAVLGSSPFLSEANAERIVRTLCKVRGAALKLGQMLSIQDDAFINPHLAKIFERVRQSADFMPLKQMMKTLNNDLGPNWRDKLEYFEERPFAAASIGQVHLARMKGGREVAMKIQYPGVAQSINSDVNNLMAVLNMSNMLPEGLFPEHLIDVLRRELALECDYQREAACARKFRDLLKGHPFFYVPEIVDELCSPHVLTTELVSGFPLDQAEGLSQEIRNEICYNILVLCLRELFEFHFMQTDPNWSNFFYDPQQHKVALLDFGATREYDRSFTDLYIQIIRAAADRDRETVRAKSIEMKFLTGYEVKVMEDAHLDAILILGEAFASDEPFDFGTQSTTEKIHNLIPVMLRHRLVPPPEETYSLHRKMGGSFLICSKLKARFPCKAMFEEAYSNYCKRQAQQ
Chain of Mitogen-activated protein kinase 11 (Homo sapiens) (Q15759 whole entry): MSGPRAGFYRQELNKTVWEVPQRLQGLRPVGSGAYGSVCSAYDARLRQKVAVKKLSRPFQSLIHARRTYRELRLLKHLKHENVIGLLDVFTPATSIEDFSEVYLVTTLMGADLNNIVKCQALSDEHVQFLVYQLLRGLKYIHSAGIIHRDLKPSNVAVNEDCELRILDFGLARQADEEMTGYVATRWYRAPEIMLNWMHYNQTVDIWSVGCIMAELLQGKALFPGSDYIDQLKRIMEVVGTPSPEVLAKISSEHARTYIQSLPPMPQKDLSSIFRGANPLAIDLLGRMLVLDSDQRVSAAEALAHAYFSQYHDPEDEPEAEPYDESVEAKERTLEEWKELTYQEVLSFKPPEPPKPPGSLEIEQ
Chain of Serine/threonine-protein kinase SIK3 (Homo sapiens) (Q9Y2K2 whole entry, looked up): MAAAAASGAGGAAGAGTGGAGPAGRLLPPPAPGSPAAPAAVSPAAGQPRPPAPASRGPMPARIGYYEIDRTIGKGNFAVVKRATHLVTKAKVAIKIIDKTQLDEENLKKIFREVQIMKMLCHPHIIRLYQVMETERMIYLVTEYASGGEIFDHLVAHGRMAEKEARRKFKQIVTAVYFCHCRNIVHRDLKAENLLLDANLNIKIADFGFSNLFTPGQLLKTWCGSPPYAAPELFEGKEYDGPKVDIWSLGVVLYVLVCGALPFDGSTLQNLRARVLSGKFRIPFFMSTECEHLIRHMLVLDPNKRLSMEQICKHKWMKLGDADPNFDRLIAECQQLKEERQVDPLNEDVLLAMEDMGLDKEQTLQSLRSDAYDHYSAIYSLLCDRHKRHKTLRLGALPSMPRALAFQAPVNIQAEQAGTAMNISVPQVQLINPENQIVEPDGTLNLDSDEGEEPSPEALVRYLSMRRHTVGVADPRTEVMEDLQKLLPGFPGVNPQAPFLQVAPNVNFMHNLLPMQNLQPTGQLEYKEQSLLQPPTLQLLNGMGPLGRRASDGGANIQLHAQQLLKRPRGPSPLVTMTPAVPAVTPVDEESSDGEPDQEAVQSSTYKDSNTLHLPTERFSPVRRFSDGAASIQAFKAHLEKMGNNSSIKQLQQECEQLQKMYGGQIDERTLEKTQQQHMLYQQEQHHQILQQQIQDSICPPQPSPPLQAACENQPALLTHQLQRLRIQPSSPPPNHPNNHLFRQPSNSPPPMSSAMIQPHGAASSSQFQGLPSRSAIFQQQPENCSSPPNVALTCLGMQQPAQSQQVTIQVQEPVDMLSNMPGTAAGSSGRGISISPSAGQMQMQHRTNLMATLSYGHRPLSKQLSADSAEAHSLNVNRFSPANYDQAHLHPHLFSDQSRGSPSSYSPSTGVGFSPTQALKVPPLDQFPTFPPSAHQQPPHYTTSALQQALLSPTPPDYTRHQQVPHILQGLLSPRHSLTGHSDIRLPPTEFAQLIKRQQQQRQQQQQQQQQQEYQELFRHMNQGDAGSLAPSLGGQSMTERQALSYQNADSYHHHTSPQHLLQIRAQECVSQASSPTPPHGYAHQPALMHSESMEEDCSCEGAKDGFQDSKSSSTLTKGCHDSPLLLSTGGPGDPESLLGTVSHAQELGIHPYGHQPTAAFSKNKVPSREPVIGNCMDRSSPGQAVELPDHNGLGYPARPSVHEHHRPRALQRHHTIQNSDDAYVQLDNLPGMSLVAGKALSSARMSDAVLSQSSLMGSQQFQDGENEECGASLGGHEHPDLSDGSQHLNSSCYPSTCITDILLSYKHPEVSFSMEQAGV
Chain of Mitogen-activated protein kinase 7 (Homo sapiens) (Q13164 2-816 limits assumed): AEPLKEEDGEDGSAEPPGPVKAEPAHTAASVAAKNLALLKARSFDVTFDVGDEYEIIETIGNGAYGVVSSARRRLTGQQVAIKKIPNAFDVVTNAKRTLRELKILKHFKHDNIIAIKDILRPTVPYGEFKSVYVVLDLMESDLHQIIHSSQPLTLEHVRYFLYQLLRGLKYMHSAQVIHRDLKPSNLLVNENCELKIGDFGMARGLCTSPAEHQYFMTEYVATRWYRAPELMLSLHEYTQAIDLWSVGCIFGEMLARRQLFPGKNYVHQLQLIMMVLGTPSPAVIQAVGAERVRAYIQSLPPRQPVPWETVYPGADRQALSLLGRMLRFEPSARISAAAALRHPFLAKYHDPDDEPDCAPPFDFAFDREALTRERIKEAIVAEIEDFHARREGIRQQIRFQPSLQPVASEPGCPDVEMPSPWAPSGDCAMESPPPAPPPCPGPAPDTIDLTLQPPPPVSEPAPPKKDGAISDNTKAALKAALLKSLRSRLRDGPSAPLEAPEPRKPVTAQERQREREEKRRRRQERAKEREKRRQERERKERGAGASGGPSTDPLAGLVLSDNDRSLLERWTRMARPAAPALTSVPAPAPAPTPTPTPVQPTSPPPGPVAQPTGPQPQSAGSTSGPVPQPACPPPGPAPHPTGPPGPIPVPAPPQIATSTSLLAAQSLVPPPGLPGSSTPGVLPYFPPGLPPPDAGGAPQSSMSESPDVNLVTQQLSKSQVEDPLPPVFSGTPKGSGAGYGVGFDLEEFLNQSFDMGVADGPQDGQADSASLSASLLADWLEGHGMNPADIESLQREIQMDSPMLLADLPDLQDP
Chain of Mitogen-activated protein kinase kinase kinase 14 (Homo sapiens) (Q99558 whole entry, looked up): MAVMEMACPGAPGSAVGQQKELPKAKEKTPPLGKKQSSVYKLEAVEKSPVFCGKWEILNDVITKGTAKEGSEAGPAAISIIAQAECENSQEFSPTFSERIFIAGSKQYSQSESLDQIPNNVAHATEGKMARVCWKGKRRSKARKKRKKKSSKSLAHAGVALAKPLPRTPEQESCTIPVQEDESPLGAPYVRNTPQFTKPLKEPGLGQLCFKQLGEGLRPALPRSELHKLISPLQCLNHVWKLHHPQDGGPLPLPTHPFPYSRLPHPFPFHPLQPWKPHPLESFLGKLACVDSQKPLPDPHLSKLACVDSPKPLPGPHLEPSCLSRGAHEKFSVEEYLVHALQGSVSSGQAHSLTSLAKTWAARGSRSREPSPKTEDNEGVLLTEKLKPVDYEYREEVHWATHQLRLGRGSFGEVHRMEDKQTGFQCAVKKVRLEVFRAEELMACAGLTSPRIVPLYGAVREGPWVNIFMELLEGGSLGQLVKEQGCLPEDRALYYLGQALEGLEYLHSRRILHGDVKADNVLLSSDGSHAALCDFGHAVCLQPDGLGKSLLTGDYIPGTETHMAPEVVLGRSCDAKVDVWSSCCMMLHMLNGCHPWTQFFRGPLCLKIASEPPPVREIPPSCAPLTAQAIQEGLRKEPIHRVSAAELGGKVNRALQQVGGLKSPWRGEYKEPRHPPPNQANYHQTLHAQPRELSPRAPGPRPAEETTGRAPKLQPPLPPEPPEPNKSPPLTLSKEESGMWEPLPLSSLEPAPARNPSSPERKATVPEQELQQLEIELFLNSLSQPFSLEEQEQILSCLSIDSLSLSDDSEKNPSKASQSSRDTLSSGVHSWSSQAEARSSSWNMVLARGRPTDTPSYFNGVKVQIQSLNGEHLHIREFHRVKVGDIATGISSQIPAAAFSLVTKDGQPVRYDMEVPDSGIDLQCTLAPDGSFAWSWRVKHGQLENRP
Chain of Dual specificity mitogen-activated protein kinase kinase 2 (Homo sapiens) (P36507 whole entry): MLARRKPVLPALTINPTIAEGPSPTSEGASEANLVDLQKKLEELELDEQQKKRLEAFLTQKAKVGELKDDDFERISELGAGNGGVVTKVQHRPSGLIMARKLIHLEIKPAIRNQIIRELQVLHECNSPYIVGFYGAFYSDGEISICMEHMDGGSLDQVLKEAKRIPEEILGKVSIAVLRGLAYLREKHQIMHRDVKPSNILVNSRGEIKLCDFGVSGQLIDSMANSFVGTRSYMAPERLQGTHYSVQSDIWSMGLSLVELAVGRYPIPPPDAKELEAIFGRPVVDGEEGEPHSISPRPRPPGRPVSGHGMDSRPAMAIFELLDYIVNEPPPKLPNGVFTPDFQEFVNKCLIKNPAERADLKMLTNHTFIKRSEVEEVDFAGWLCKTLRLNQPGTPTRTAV

SMILES	residual activity [1]	residual activity [2]	residual activity [3]	residual activity [4]	residual activity [5]	residual activity [6]	residual activity [7]	residual activity [8]	residual activity [9]	residual activity [10]	residual activity [11]	residual activity [12]	residual activity [13]	residual activity [14]	residual activity [15]	residual activity [16]	residual activity [17]	residual activity [18]	residual activity [19]	residual activity [20]	also measured
NS(=O)(=O)c1cc(NC(=O)Cc2ccccc2)ccc1Oc1cccc(Cl)c1 [BAY-1797]	91%	100%	58%	90%	95%	80%	95%	92%	100%	94%	91%	84%	66%	87%	78%	100%	83%	84%	87%	87%	residual activity [21]: 67%; residual activity [22]: 68%; residual activity [23]: 89%; residual activity [24]: 100%; residual activity [25]: 100%; residual activity [26]: 96%; residual activity [27]: 100%; residual activity [28]: 91%; residual activity [29]: 99%; residual activity [30]: 72%; residual activity [31]: 87%; residual activity [32]: 100%; inhibition [33]: 19.9%; residual activity [34]: 73%; residual activity [35]: 83%; residual activity [36]: 78%; inhibition [37]: -1.77%; residual activity [38]: 54%; residual activity [39]: 91%
NS(=O)(=O)c1cc(NC(=O)C2(c3ccccc3Cl)CC2)ccc1Oc1cccc(Cl)c1 [BAY-207]	98%	88%	46%	88%	96%	70%	100%	64%	79%	100%	89%	100%	100%	79%	77%	68%	92%	100%	80%	75%	residual activity [21]: 100%; residual activity [22]: 100%; residual activity [23]: 100%; residual activity [24]: 100%; residual activity [25]: 94%; residual activity [26]: 88%; residual activity [27]: 78%; residual activity [28]: 87%; residual activity [29]: 74%; residual activity [30]: 100%; residual activity [31]: 87%; residual activity [32]: 89%; inhibition [33]: 3.19%; residual activity [34]: 72%; residual activity [35]: 94%; residual activity [36]: 100%; inhibition [37]: 4.89%; residual activity [38]: 89%; residual activity [39]: 100%
